Measured values: patent US20230414615A1, “PYRIMIDINONE COMPOUNDS FOR TREATING ACUTE INFLAMMATION” (TES Pharma S.r.l., priority 2022, published 2023)
Blank lines part the entries; values can stand above or below the compound they belong to.

How the values were obtained:
[1] = tested on: mouse primary hepatocytes; test: SOD2 activity in mouse primary hepatocytes; assay type: cell-based; details: treatment for 24 hrs; stated as dose-dependent
[2] = tested on: co-culture primary hepatocytes and Kupffer cells; test: IL-6 secretion in co-culture of primary hepatocytes and Kupffer cells following LPS-induced inflammation; assay type: cell-based; details: LPS 50 ng/mL; stated as dose-dependent
Kupffer cells [3] = test: Cytokine secretion in Kupffer cells following LPS-induced inflammation (Bio-Plex); assay type: cell-based, mouse; details: LPS 50 ng/mL; for secretion of IL-1β / secretion of IL-6: 1 μM
Source text: […] Cells treated with DMSO were used as control at the final concentration of 0.5% in medium. All the wells were normalized with DMSO at 0.5% final concentration. The supernatant was collected to measure cytokine secretion using a Bio-Plex Pro mouse cytokine 23-plex assay system (cat #M60009RDPD) using a Bio-Plex Instrument. The cells were washed once with PBS, and then lysed to extract total RNA for performing RT-PCR to evaluate ACMSD modulation of IL-10, SIRT1, and STAT3 gene expression.
All cytokine secretion values were normalized to the luminescent signal relative to the measuring of the cellular ATP (CellTiter-Glo cat #G7571)).

primary hepatocytes [4] = test: NAD+ biosynthesis in primary hepatocytes; assay type: cell-based
Kupffer cells [5] = test: NAD+ biosynthesis in Kupffer cells; assay type: cell-based
primary hepatocytes [6] = test: SIRT1 activation in primary hepatocytes; assay type: cell-based; details: 500 nM; 24 hrs after treatment
[7] = tested on: human primary bone marrow mononuclear cells (BMMCs); test: LPS-induced cytokine secretion in human primary bone marrow mononuclear cells (BMMCs); assay type: cell-based; details: for secretion of TNFα: BMMC cells, LPS 50 ng/mL
[8] = tested on: co-culture of primary hepatocytes and stellate cells; test: Cytokine secretion in co-culture of primary hepatocytes and stellate cells following LPS-induced inflammation; assay type: cell-based; details: LPS 50 ng/mL; for secretion of IL-1β: 1 μM
rat renal NRK52E cells = test: OPA-1 expression in rat renal NRK52E cells following Cisplatin insult; assay type: cell-based; details: via SIRT-3 activation; following Cisplatin insult (100 μM)
[9] = tested on: co-culture of primary hepatocytes and stellate cells; test: Gene expression in co-culture of primary hepatocytes and stellate cells after free fatty acid mix; assay type: cell-based; details: 5 μM; after 6 hr exposure to palmitate (0.33 mM) and oleate (0.66 mM)
primary hepatocytes [10] = test: Gene expression / mRNA levels in primary hepatocytes; assay type: cell-based, mouse; details: for mRNA levels of mitochondrial genes TFAM, Ndufa, Uqcrc1, CytC, Atp5g1 and CS: mouse primary hepatocytes after 24 hr treatment
[11] = tested on: kidney proximal tubular HK2 cells; test: NAD+ biosynthesis in kidney proximal tubular HK2 cells; assay type: cell-based
liver and kidneys = test: Transcription of mitochondrial genes in liver and kidneys after administration of ACMSD inhibitors; assay type: in vivo
[12] = mRNA levels of mitochondrial and oxidative stress genes (cell type not stated); assay type: cell-based; details: 100 μM
Kupffer cells [13] = test: Gene expression (RT-PCR) in Kupffer cells; assay type: cell-based, mouse
Description: 200,000 Kupffer cells were plated out in a 24 well plate and the ACMSD inhibitor (e.g. compounds of present disclosure, compound of Formula I, Ia, Ib, and II) (5 μM) was added 1 hr before the cells were stimulated with LPS overnight 50 ng/ml (1 mg/mL stock solution in H2O, dispensed at 50 ng/mL in the well) final concentration. Cells treated with DMSO were used as control at the final concentration of 0.5% in medium. All the wells were normalized with DMSO at 0.5% final concentration. The supernatant was collected to measure cytokine secretion using a Bio-Plex Pro mouse cytokine 23-plex assay system (cat #M60009RDPD) using a Bio-Plex Instrument. The cells were washed once with PBS, and then lysed to extract total RNA for performing RT-PCR to evaluate ACMSD modulation of IL-10, SIRT1, and STAT3 gene expression.
Briefly, total RNA was extracted from the cells using the manufacturer's protocol for Qiagen RNeasy Plus Mini Kit (cat. 74134). The total RNA concentration was quantified using an Implen Instrument, and the purity was evaluated by measuring the ratio of A260/A280.
Total RNA (1 μg) was reverse transcribed using the manufacturer's protocol for SuperScript IV VILO Master Mix (ThermoFisher cat. #. 11756500). Real-time PCR was then performed in CFX 96 Real Time System (Bio-Rad) as follows: denaturation at 95° C. for 2 minutes, followed by 40 cycles at 95° C. for 10 s, and hybridization at 60° C. for 20 s. QPCR was performed using the 2× QuantiNova SYBR Green PCR Master Mix (Qiagen). Mouse β2 microglobulin (m 02M) was used as a reference gene.

HK2 cells = test: TGF-β-induced fibrosis in HK2 (renal tubular) cells; assay type: cell-based
Description: (§1) MATERIALS AND METHODS: Treatment with Compound I-18 in presence of LPS for 24 h has been performed to evaluate anti inflammatory properties and M1 to M2 transition. Renal tubular cells were stimulated with Compound I-18 and TGFβ for 16 hrs to evaluate the expression of genes involved in fibrosis. Compound 1-18 (50 mg/kg) was dosed daily in mice treated with LPS 15 mg/kg. Survival percentage and liver gene modulation has been monitored in Sham groups, LPS and LPS+Compound 1-18 groups (n=8). 12-15 week old mice underwent CLP (50% ligation, thru-and-thru puncture with 21G needle) to evaluate CLP-induced sepsis. Compound I-18 was dosed at the concentration of 50 mg/kg for 7 days from CLP. Survival percentage and expression of genes involved in renal inflammation has been monitored.

C57BL/6 mice = test: LPS-induced systemic inflammation in mice, survival; assay type: in vivo, mouse; details: 50 mg/kg dosed daily, LPS 15 mg/kg
Description: Male C57/6 mice (12-15 weeks old) (obtained from Charles River Laboratories) were housed under a 12 h/12 h light/dark cycle with free access to water and standard food. The mice were divided into four groups: control, control+ACMSD inhibitor, LPS, and LPS+the ACMSD inhibitor. LPS (Sigma; 20 mg/kg/d and 1 mg/ml in 0.9% normal saline) was intraperitoneally injected, and the same volume of 0.9% normal saline alone was used as controls. A dose of 15 mg/kg IP injection of the ACMSD inhibitor (e.g. compounds of present disclosure, compound of Formula I, Ia, Ib, and II) was used which was intraperitoneally injected immediately after LPS injection. An equal volume of the solvent was injected in the control and LPS alone groups. The mice were sacrificed at 24 h after various treatments and the liver and kidneys were collected for subsequent analysis.
(§2) MATERIALS AND METHODS: Treatment with Compound I-18 in presence of LPS for 24 h has been performed to evaluate anti inflammatory properties and M1 to M2 transition. Renal tubular cells were stimulated with Compound I-18 and TGFβ for 16 hrs to evaluate the expression of genes involved in fibrosis. […] Survival percentage and liver gene modulation has been monitored in Sham groups, LPS and LPS+Compound 1-18 groups (n=8). […] Survival percentage and expression of genes involved in renal inflammation has been monitored.

murine Kupffer cells = test: M1/M2 polarisation of murine Kupffer cells treated with LPS; assay type: cell-based, mouse
Description: as §1

HK2 primary tubule cells = test: Gene expression in HK2 (HK-2) primary tubule cells, basal or after Cisplatin insult; assay type: cell-based
[14] = tested on: CLP-induced sepsis model in mice; test: CLP-induced sepsis model in mice (ex-vivo kidney gene expression, survival); parameters: species or system mouse; details: IP 30 mg/kg/dose
Description: C57BL/6 mice (12-15 weeks old) (obtained from Charles River Laboratories) were anesthetized by intraperitoneal (i.p.) injection of a 1:1 solution of ketamine (75 mg/kg) and xylazine (15 mg/kg) (or pentobarbital (70 mg/kg)). The lower abdomen of the mouse was shaved and the area disinfected with a 70% alcohol swab. Under aseptic conditions, a 1 to 2 cm midline laparotomy was performed and the cecum exposed. The cecum was tightly ligated at the level of the second cecal artery with a 2.0 silk suture, perforated twice with a 22-gauge needle, and after expressing to allow for fecal matter to extrude, returned into the abdomen. The abdominal wall is then closed by planes using a running silk 4-0. Control animals underwent the same laparotomy and externalization of the cecum, but no ligation or perforation was performed. Animals were resuscitated with 1.0 mL of 0.9% normal saline, immediately after surgery via subcutaneous injection and recovered on thermal blankets under monitoring. Animals were then treated with 0.5 ml LRS (Q12 hours SQ for 3 days), ampicillin sulbactam (250 mg/kg Q12 hours IP for 3 days) and analgesic treatment (buprenorphine 0.05 mg/kg for 3 days).
ACMSD inhibitors (e.g. compounds of present disclosure, compound of Formula I, Ia, Ib, and II) were administered at two different timepoints: (a) an early phase timepoint i.e. at the time of CLP and (b) at 24 hours after CLP. […] Blood samples and target organ tissue (liver and kidney) were collected at the time of sacrificing for histology and biomarker measurements.
as §2

[15] = tested on: preclinical model of liver and kidney diseases; test: Preclinical model of liver and kidney diseases (NASH, AKI); details: in vivo
[16] = cell system not restated (follows HK2 TGF-β experiment)
[17] = murine Kupffer cells treated with LPS
[18] = 100 μM, HK-2 cells following cisplatin-insult

activity of mitochondrial superoxide dismutase 2, SOD2 [1]: increases
Structure (SMILES): N#Cc1c(-c2cccs2)nc(SCc2cccc(-c3nn[nH]n3)c2)[nH]c1=O [Compound I-17]
secretion of IL-6 [2]: reduced
secretion of IL-1β (Kupffer cells [3]): reduces
secretion of IL-6 (Kupffer cells [3]; incubation time 24 h): reduced
secretion of TNFα (Kupffer cells [3]): reduces
NAD+ biosynthesis (primary hepatocytes [4]): restores
NAD+ biosynthesis (Kupffer cells [5]): restores
SIRT1 activation (primary hepatocytes [6]): activate
secretion of TNFα [7]: reduces
secretion of IL-1β [8]: reduces
secretion of TNFα [8]: reduces
expression of OPA-1 (rat renal NRK52E cells): increasing
expression of IL-1β [9]: reduced
expression of TNFα [9]: reduced
expression of pro-fibrotic chemokine CTGF [9]: reduces
expression of pro-fibrotic cytokine TGF-β [9]: reduces
expression of the pro-fibrotic genes BAX, ACTA2, Col1A1, fibronectin, THBS-1 and TIMP2 [9]: reduces
mRNA levels of mitochondrial genes TFAM, Ndufa, Uqcrc1, CytC, Atp5g1 and CS (primary hepatocytes [10]): increases
expression of mitochondrial SOD2 (primary hepatocytes [10]; primary hepatocytes): increases
mRNA levels of fatty acid oxidation genes Mcad, Cpt1a, Hadha1, Hsl, Pdk4 and Sdha (primary hepatocytes [10]; primary hepatocytes after 6 hr exposure to palmitate (0.33 mM) and oleate (0.66 mM)): increases
expression of mitochondrial transcription factor A, TFAM (primary hepatocytes [10]; primary hepatocytes, via SIRT-1 activation): increasing
NAD+ biosynthesis [11]: restores
expression of the same genes (Mcad, Cpt1a, Ndufa2, Atp5g1, Sod2) in the kidneys (liver and kidneys): unaffected
transcription of the mitochondrial genes Mcad, Cpt1a, Ndufa2, Atp5g1 and Sod2 in the liver (liver and kidneys): induces

Structure (SMILES): N#Cc1c(-c2cccs2)nc(SCc2cccc(CC(=O)O)c2)[nH]c1=O [Compound I-18]
mRNA levels of mitochondrial and oxidative stress genes CS, Ndufa2, Cox2, Atp5g1, Sod1 and Sod2 [12]: increases
expression of SIRT-1 (Kupffer cells [13]): increases
QPRT expression (Kupffer cells [13]; inflammatory conditions (LPS at 50 ng/mL), beyond basal conditions): increases
expression of IL-10 (Kupffer cells [13]; stated as dose-dependent): increases
expression of STAT3 (Kupffer cells [13]; stated as dose-dependent): increases
SMAD4 expression (HK2 cells; TGF-β-induced fibrosis in HK2 cells): less modulated
SMAD3 (HK2 cells; both preventive and therapeutic treatment, TGF-β-induced fibrosis in HK2 cells): dose-dependent reduction
expression of TIMP2 (HK2 cells; [16]): dose-dependent reduction
expression of fibronectin (HK2 cells; [16]): dose-dependent reduction
in vitro fibrosis in renal cells (HK2 cells; renal tubular cells stimulated with TGFβ for 16 hrs): reduced
activity of mitochondrial superoxide dismutase 2, SOD2 [1]: increases
survival in LPS-induced systemic inflammation (C57BL/6 mice): promotes survival
secretion of IL-6 [2]: reduced
secretion of IL-1β (Kupffer cells [3]): reduces
secretion of IL-6 (Kupffer cells [3]; incubation time 24 h): reduced
secretion of TNFα (Kupffer cells [3]): reduces
secretion of IL-6, dose dependence of the reduction (Kupffer cells [3]; incubation time 24 h): in a dose-dependent manner
NAD+ biosynthesis (primary hepatocytes [4]): restores
polarisation of resident liver macrophages (Kupffer cells) towards an M2 phenotype (M1-to-M2 transition) (murine Kupffer cells; in vitro, M1 induced by LPS): promoting their conversion
M1 phenotype gene markers iNOS, IL-6 and TNFα (murine Kupffer cells; [17]): decrease
M2 phenotype gene markers Arginase-1, Mannose Receptor (Mrc-2) and IL-10 (murine Kupffer cells; [17]): increase
anti-inflammatory M2 Kupffer macrophages / M2 macrophage phenotype (murine Kupffer cells; [17]): promotes
pro-inflammatory M1 Kupffer macrophages (murine Kupffer cells; murine Kupffer cells treated with LPS, dose-response manner): blocks
M2 macrophage phenotype (murine Kupffer cells; two different stimuli (LPS and IL-4)): can promote
NAD+ biosynthesis (Kupffer cells [5]): restores
SIRT1 activation (primary hepatocytes [6]): activate
reduction of SIRT expression induced by a Cisplatin insult (HK2 primary tubule cells; 50 μM, HK2 primary tubule cells): reverses
expression of OPA-1 (HK2 primary tubule cells; [18]): increases
expression of SOD2 (HK2 primary tubule cells; [18]): increases
expression of SIRT-3 (HK2 primary tubule cells; HK2 primary tubule cells): increases
mRNA levels of mitochondrial genes Sod1, Ndufa2, Cox2 and CytC (HK2 primary tubule cells; HK-2 cells after 24 hr treatment): increase
secretion of LPS-induced IL-6 ([7]; 5 μM, human BMMCs): reduces
secretion of TNFα [7]: reduces
secretion of IL-1β [8]: reduces
secretion of TNFα [8]: reduces
expression of TNFα [9]: reduced
expression of pro-fibrotic chemokine CTGF [9]: reduces
expression of pro-fibrotic cytokine TGF-β [9]: reduces
expression of the pro-fibrotic genes BAX, ACTA2, Col1A1, fibronectin, THBS-1 and TIMP2 [9]: reduces
expression of IL-1β in ex-vivo kidney tissue samples [14]: reduced
expression of MCP1 in ex-vivo kidney tissue samples [14]: reduced
expression of TNFα in ex-vivo kidney tissue samples [14]: reduced
effects in preclinical model of liver and kidney diseases, such as NASH and AKI [15]: protective effects
mRNA levels of mitochondrial genes TFAM, Ndufa, Uqcrc1, CytC, Atp5g1 and CS (primary hepatocytes [10]): increases
NAD+ biosynthesis [11]: restores
expression of the same genes (Mcad, Cpt1a, Ndufa2, Atp5g1, Sod2) in the kidneys (liver and kidneys): unaffected
transcription of the mitochondrial genes Mcad, Cpt1a, Ndufa2, Atp5g1 and Sod2 in the liver (liver and kidneys): induces
